Changes are numbered by the printed parent chain.
What was measured:
PBP4 [1] = molecular target: T1, PBP4 (Staphylococcus aureus, UniProt P72355); assay: fluorogenic D,D-transpeptidation assay with Rf470DL, dose-response; assay type: biochemical
T1 sequence (P72355 25-431): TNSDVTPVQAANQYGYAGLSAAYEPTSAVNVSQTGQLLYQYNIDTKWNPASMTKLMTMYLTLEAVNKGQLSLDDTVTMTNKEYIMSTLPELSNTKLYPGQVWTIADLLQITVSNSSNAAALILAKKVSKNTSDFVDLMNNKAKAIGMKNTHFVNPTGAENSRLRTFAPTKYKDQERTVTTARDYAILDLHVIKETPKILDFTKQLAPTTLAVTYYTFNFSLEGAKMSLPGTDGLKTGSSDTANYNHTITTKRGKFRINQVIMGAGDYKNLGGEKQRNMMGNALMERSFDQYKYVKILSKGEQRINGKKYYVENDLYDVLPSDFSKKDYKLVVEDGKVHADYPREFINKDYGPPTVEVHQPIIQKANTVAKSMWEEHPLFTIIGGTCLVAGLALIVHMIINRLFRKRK

PBP4 [2] = molecular target: T2, PBP4 (Staphylococcus aureus, UniProt A0A0H2WY27); assay: Nitrocefin hydrolysis; assay type: biochemical
T2 sequence (A0A0H2WY27 25-431): T1 sequence (P72355 25-431) with L210H

Row | IC50 (PBP4 [1]) | Structure (SMILES) | Nitrocefin hydrolysis (β-lactamase activity) competition assay (PBP4 [2])
1 | ~2340 nM | CO[C@@]1(NC(=O)Cc2cccs2)C(=O)N2C(C(=O)O)=C(COC(N)=O)CS[C@@H]21 [Cefoxitin] | 
2 |  | O=C(Cc1cccs1)N[C@@H]1C(=O)N2C(C(=O)O)=C(/C=C/c3ccc([N+](=O)[O-])cc3[N+](=O)[O-])CS[C@H]12 [Nitrocefin] | in the presence of Cefoxitin or Carbenicillin, Nitrocefin hydrolysis was strongly inhibited

From article PMC6444347 (Nature chemistry, 2019)
